How the values were obtained:
Assay type in all cases: in vivo
Conditions in all cases: evaluated after 13 days
[1] = tested on: Amaranthus palmeri (AMAPA); test: Pre-emergence Test, Amaranthus palmeri (AMAPA)
[2] = tested on: Ipomoea hederacea (IPOHE); test: Post-emergence Test, Ipomoea hederacea (IPOHE); design: key to percentage damage caused to the plant, IPOHE (five-point scale): 5=81-100%, 4=61-80%, 3=41-60%, 2=21-40%, 1=0-20% damage
In short: (§1)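 Spray application at 1000 g/ha unless otherwise stated. Damage was scored 13 days later as 1 (0-20%) to 5 (81-100%).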

[3] = tested on: Echinochloa crus-galli (ECHCG); test: Post-emergence Test, Echinochloa crus-galli (ECHCG); design: key to percentage damage caused to the plant, ECHCG (five-point scale): 5=81-100%, 4=61-80%, 3=41-60%, 2=21-40%, 1=0-20% damage
In short: as §1

[4] = tested on: Amaranthus palmeri (AMAPA); test: Post-emergence Test, Amaranthus palmeri (AMAPA); design: key: 5=81-100%, 4=61-80%, 3=41-60%, 2=21-40%, 1=0-20% damage
In short: as §1

[5] = tested on: Ipomoea hederacea (IPOHE); test: Pre-emergence Test, Ipomoea hederacea (IPOHE)
Setaria faberi (SETFA) [6] = test: Post-emergence Test, Setaria faberi (SETFA); design: key to percentage damage caused to the plant, SETFA (five-point scale): 5=81-100%, 4=61-80%, 3=41-60%, 2=21-40%, 1=0-20% damage
In short: as §1

Zea mays (ZEAMX) [7] = test: Pre-emergence Test, Zea mays (ZEAMX)
[8] = tested on: Amaranthus retoflexus (AMARE); test: Pre-emergence Test, Amaranthus retoflexus (AMARE)
Setaria faberi (SETFA) [9] = test: Pre-emergence Test, Setaria faberi (SETFA)
[10] = tested on: Amaranthus retoflexus (AMARE); test: Post-emergence Test, Amaranthus retoflexus (AMARE); design: key to percentage damage caused to the plant, AMARE (five-point scale): 5=81-100%, 4=61-80%, 3=41-60%, 2=21-40%, 1=0-20% damage
In short: as §1

Zea mays (ZEAMX) [11] = test: Post-emergence Test, Zea mays (ZEAMX); design: key to percentage damage caused to the plant, ZEAMX (five-point scale): 5=81-100%, 4=61-80%, 3=41-60%, 2=21-40%, 1=0-20% damage
In short: as §1

[12] = tested on: Echinochloa crus-galli (ECHCG); test: Pre-emergence Test, Echinochloa crus-galli (ECHCG)

| SMILES | Pre-emergence Test AMAPA, percentage damage caused to the plant (five-point scale) ([1]; 1000 g/ha) | percentage damage caused to the plant, IPOHE (five-point scale) ([2]; 250 g/Ha) | percentage damage caused to the plant, IPOHE (five-point scale) ([2]; 1000 g/ha) | percentage damage caused to the plant, ECHCG (five-point scale) ([3]; 250 g/Ha) | percentage damage caused to the plant, ECHCG (five-point scale) ([3]; 1000 g/ha) | percentage damage caused to the plant, AMAPA (five-point scale) ([4]; 250 g/Ha) | percentage damage caused to the plant, AMAPA (five-point scale) ([4]; 1000 g/ha) | Pre-emergence Test IPOHE, percentage damage caused to the plant (five-point scale) ([5]; 1000 g/ha) | percentage damage caused to the plant, SETFA (five-point scale) (Setaria faberi (SETFA) [6]; 1000 g/ha) | Pre-emergence Test ZEAMX, percentage damage caused to the plant (five-point scale) (Zea mays (ZEAMX) [7]; 1000 g/ha) | Pre-emergence Test AMARE, percentage damage caused to the plant (five-point scale) ([8]; 1000 g/ha) | Pre-emergence Test SETFA, percentage damage caused to the plant (five-point scale) (Setaria faberi (SETFA) [9]; 1000 g/ha) | percentage damage caused to the plant, AMARE (five-point scale) ([10]; 250 g/Ha) | percentage damage caused to the plant, AMARE (five-point scale) ([10]; 1000 g/ha) | percentage damage caused to the plant, ZEAMX (five-point scale) (Zea mays (ZEAMX) [11]; 250 g/Ha) | percentage damage caused to the plant, ZEAMX (five-point scale) (Zea mays (ZEAMX) [11]; 1000 g/ha) | Pre-emergence Test ECHCG, percentage damage caused to the plant (five-point scale) ([12]; 1000 g/ha) | Pre-emergence Test AMAPA, percentage damage caused to the plant (five-point scale) ([1]; 250 g/Ha (*)) | Pre-emergence Test IPOHE, percentage damage caused to the plant (five-point scale) ([5]; 250 g/Ha (*)) | Pre-emergence Test ZEAMX, percentage damage caused to the plant (five-point scale) (Zea mays (ZEAMX) [7]; 250 g/Ha (*)) | also measured |
| --- | --- | --- | --- | --- | --- | --- | --- | --- | --- | --- | --- | --- | --- | --- | --- | --- | --- | --- | --- | --- | --- |
| CCn1c(Cn2ccc(C(F)(F)F)n2)cc(=O)c(C(=O)O)c1-c1ccc(Cl)c(C#N)c1 [Compound 128, 2-(4-chloro-3-cyano-phenyl)-1-ethyl-4-oxo-6-[[3-(trifluoromethyl)pyrazol-1-yl]methyl]pyridine-3-carboxylic acid] | 1 (1=0-20%) | 1 (1=0-20%) | 1 (1=0-20%) | 1 (1=0-20%) | 4 (4=61-80%) | 0 | 1 (1=0-20%) | 1 (1=0-20%) | 3 (3=41-60%) | 0 | 1 (1=0-20%) | 3 (3=41-60%) | 0 | 1 (1=0-20%) | 0 | 1 (1=0-20%) | 1 (1=0-20%) |  |  |  | percentage damage caused to the plant, SETFA (five-point scale) (Setaria faberi (SETFA) [6]; 250 g/Ha): 0 |
| CCn1c(Cn2ncc(Cl)c2C)cc(=O)c(C(=O)O)c1-c1ccc(Cl)c(Cl)c1 [Compound 88, 6-[(4-chloro-5-methyl-pyrazol-1-yl)methyl]-2-(3,4-dichlorophenyl)-1-ethyl-4-oxo-pyridine-3-carboxylic acid] |  | 2 (2=21-40%) | 2 (2=21-40%) | 3 (3=41-60%) | 2 (2=21-40%) | 1 (1=0-20%) | 2 (2=21-40%) | 2 (2=21-40%) | 4 (4=61-80%) | 1 (1=0-20%) |  | 2 (2=21-40%) | 1 (1=0-20%) | 1 (1=0-20%) | 0 | 3 (3=41-60%) | 3 (3=41-60%) |  |  |  | percentage damage caused to the plant, SETFA (five-point scale) (Setaria faberi (SETFA) [6]; 250 g/Ha): 0 |
| CCn1c(Cn2cc(C(=O)OC)cn2)cc(=O)c(C(=O)OC(C)(C)C)c1-c1ccc(Cl)c(Cl)c1 [Compound 61, tert-butyl 2-(3,4-dichlorophenyl)-1-ethyl-6-[(4-methoxycarbonyl-pyrazol-1-yl)methyl]-4-oxo-pyridine-3-carboxylate] | 1 (1=0-20%) |  | 0 |  | 0 |  | 0 | 0 | 1 (1=0-20%) | 0 | 1 (1=0-20%) | 1 (1=0-20%) |  | 1 (1=0-20%) |  | 0 |  |  |  |  |  |
| CCOC(=O)c1c(-c2ccc(Cl)c(Cl)c2)n(CC)c(Cn2ncc3cnc(Cl)cc32)cc1=O [Compound 52, ethyl 6-[(6-chloropyrazolo[4,3-c]pyridin-1-yl)methyl]-2-(3,4-dichlorophenyl)-1-ethyl-4-oxo-pyridine-3-carboxylate] | 1 (1=0-20%) |  | 2 (2=21-40%) |  | 1 (1=0-20%) |  | 2 (2=21-40%) | 0 | 1 (1=0-20%) | 0 | 1 (1=0-20%) | 0 |  | 0 |  | 0 |  |  |  |  |  |
| CCn1c(Cn2ccc([N+](=O)[O-])n2)cc(=O)c(C(=O)O)c1-c1ccc(Cl)c(Cl)c1 [Compound 178, 2-(3,4-dichlorophenyl)-1-ethyl-6-[(3-nitropyrazol-1-yl)methyl]-4-oxo-pyridine-3-carboxylic acid] | 0 | 1 (1=0-20%) | 0 | 1 (1=0-20%) |  | 1 (1=0-20%) | 1 (1=0-20%) | 0 | 2 (2=21-40%) | 0 | 0 |  | 0 | 1 (1=0-20%) | 0 | 0 | 2 (2=21-40%) | 0 | 0 | 0 | Pre-emergence Test AMARE, percentage damage caused to the plant (five-point scale) ([8]; 250 g/Ha (*)): 0; Pre-emergence Test ECHCG, percentage damage caused to the plant (five-point scale) ([12]; 250 g/Ha (*)): 1 (1=0-20%) |
| CCOc1ccn(Cc2cc(=O)c(C(=O)O)c(-c3ccc(Cl)c(Cl)c3)n2CC)n1 [Compound 164, 2-(3,4-dichlorophenyl)-6-[(3-ethoxypyrazol-1-yl)methyl]-1-ethyl-4-oxo-pyridine-3-carboxylic acid] | 1 (1=0-20%) | 3 (3=41-60%) | 4 (4=61-80%) | 4 (4=61-80%) |  | 1 (1=0-20%) | 3 (3=41-60%) | 4 (4=61-80%) | 5 (5=81-100%) | 0 | 1 (1=0-20%) |  | 1 (1=0-20%) | 3 (3=41-60%) | 4 (4=61-80%) | 4 (4=61-80%) | 5 (5=81-100%) | 0 | 4 (4=61-80%) | 1 (1=0-20%) | Pre-emergence Test AMARE, percentage damage caused to the plant (five-point scale) ([8]; 250 g/Ha (*)): 1 (1=0-20%); Pre-emergence Test ECHCG, percentage damage caused to the plant (five-point scale) ([12]; 250 g/Ha (*)): 4 (4=61-80%) |
| CCOC(=O)c1c(C)cnn1Cc1cc(=O)c(C(=O)O)c(-c2ccc(Cl)c(Cl)c2)n1CC [Compound 122, 2-(3,4-dichlorophenyl)-6-[(5-ethoxycarbonyl-4-methyl-pyrazol-1-yl)methyl]-1-ethyl-4-oxo-pyridine-3-carboxylic acid] |  |  |  |  |  |  |  |  |  |  |  |  |  |  |  |  |  | 1 (1=0-20%) | 0 | 0 | Pre-emergence Test AMARE, percentage damage caused to the plant (five-point scale) ([8]; 250 g/Ha (*)): 0; Pre-emergence Test SETFA, percentage damage caused to the plant (five-point scale) (Setaria faberi (SETFA) [9]; 250 g/Ha (*)): 1 (1=0-20%); Pre-emergence Test ECHCG, percentage damage caused to the plant (five-point scale) ([12]; 250 g/Ha (*)): 0 |

Source: US20250098679A1, “HERBICIDAL PYRIDONE DERIVATIVES” (SYNGENTA CROP PROTECTION AG, priority 2021, published 2025)
